Data: patent publication US8785459B2, “Quinazoline compounds as kinase inhibitors” (Development Center for Biotechnology, priority 2011, dated 2014)

How the values were obtained:
C-Raf = C-Raf (Homo sapiens (Human), UniProt P04049); experiment: Raf kinase assay (C-Raf), [33P] incorporation into MEK1(K97R); format: biochemical
How it was run: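 [33P] transfer to kinase-dead MEK1(K97R) substrate (500 ng) measured after 30 min at 30 °C in Tris pH 7.5 buffer containing 8 μM ATP. Enzyme inputs were 2 ng for C-Raf and 5 ng for B-Raf and B-Raf V600E. Duplicate 3-fold serial dilutions gave the half-maximal inhibitory concentration.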

MDA-MB-231 = experiment: Anti-proliferative activity, CellTiter-96 assay, MDA-MB-231; format: cell-based; conditions: Homo sapiens, MDA-MB-231 cells, 72 hours incubation
How it was run: (§1)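 Cells in DMEM with 10% FCS at 37° C., 5% CO2, plated at 2000 cells/well for 24 h, then exposed to graded compound concentrations for 72 h. CellTiter-96 Aqueous One reagent added for 4.0 h; viability read as absorbance at 490 nm.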

EGFR kinase = EGFR kinase (Homo sapiens (Human), UniProt P00533); experiment: EGFR kinase assay; format: biochemical
Experimental: Inhibition of EGFR kinase activity by compounds disclosed herein is quantified by measuring the amount of [^33P] incorporated into the substrate in the presence of a test compound. Briefly, a reaction mixture of 25 μL final volume containing 25 ng of EGFR kinase (EGFR kinase domain alone, Millipore), 3 μg of the substrate [poly(Glu-Tyr), Sigma], kinase reaction buffer (10 mM MOPS pH 7.0, 0.3 mM EDTA, 0.5% glycerol, 0.001% Brij-35, 10 mM MnCl2, 0.1 mg/ml BSA, 100 μM ATP, 0.1 μCi per well [^33P]-γ-ATP (2,500-3,000 Ci/mmol)), and a test compound (100 nM, diluted with 4% DMSO) or DMSO (as the control) was incubated at 30° C. for 30 minutes. The reaction was stopped by adding 5 μL of 3% phosphoric acid solution. The resultant reaction solution was then harvested onto a filter plate (UniFilter-96 GF/B, PerkinElmer), washed 20 times for 5 min with d.d. H2O, and followed by the addition of 30 μL of MicroScint™-20 Cocktail (PerkinElmer). The radioactivity retained on the filter membrane was measured by TopCount™ scintillation detector (PerkinElmer). The results were analyzed by using linear regression software (GraphPad Prism™ 4; GraphPad Software Inc.). IC50 value is defined as the concentration of the test compound which achieves a half-maximal inhibition of the kinase activity.

EGFR (T790M) kinase = EGFR (T790M) kinase (Homo sapiens (Human), UniProt P00533, T790M); experiment: EGFR (T790M) kinase assay; format: biochemical
Experimental: C. EGFR (T790M) Kinase Assay
Inhibition of EGFR (T790M) kinase activity by compounds disclosed herein was quantified by measuring the amount of [^33P] incorporated into the substrate in the presence of a test compound. Briefly, a reaction mixture of 25 μL final volume containing 25 ng of EGFR (T790M) kinase (EGFR (T790M) kinase domain alone, Millipore), 5 μg of the substrate [poly(Glu-Tyr), Sigma], kinase reaction buffer (10 mM MOPS pH 7.0, 0.3 mM EDTA, 0.5% glycerol, 0.001% Brij-35, 10 mM MnCl2, 0.1 mg/ml BSA, 100 μM ATP, 0.1 μCi per well [^33P]-γ-ATP (2,500-3,000 Ci/mmol)), and a test compound (100 nM; diluted with 4% DMSO) or DMSO (as the control) was incubated at 30° C. for 60 minutes. The reaction was stopped by adding 5 μL of 3% phosphoric acid solution. The resultant reaction solution was then harvested onto a filter plate (UniFilter-96 GF/B, PerkinElmer), washed 20 times for 5 min with d.d. […] The radioactivity retained on the filter membrane was measured by TopCount™ scintillation detector (PerkinElmer). The results were analyzed by using linear regression software (GraphPad Prism™ 4; GraphPad Software Inc.). The percentage of inhibition of EGFR (T790M) by the test compound was calculated by dividing the retained radioactivity of the test sample with the retained radioactivity of the control sample and shown in Table 4.

A549 = experiment: Anti-proliferative activity, CellTiter-96 assay, A549; format: cell-based; conditions: Homo sapiens, A549 cells, 72 hours incubation
How it was run: as §1

COLO205 = experiment: Anti-proliferative activity, CellTiter-96 assay, COLO205; format: cell-based; conditions: Homo sapiens, COLO 205, COLO205 cells, 72 hours incubation
How it was run: as §1

Sequence of EGFR kinase (P00533 712-979): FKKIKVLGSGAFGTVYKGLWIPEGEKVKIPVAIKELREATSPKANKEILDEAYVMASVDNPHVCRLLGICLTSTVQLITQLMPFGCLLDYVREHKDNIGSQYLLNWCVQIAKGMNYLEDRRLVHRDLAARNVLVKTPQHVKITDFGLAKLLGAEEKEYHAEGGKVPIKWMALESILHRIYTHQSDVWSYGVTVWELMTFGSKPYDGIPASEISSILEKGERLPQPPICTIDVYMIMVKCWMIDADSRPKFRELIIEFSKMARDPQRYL
Sequence of EGFR (T790M) kinase (P00533 712-979 T790M): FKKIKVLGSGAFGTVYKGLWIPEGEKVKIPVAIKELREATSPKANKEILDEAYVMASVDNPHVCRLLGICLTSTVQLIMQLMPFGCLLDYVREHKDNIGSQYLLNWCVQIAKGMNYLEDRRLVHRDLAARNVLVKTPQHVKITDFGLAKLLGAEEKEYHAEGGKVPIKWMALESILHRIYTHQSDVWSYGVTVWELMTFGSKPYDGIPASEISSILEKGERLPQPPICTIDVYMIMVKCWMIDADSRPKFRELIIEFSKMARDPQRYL
Sequence of C-Raf (P04049 whole entry): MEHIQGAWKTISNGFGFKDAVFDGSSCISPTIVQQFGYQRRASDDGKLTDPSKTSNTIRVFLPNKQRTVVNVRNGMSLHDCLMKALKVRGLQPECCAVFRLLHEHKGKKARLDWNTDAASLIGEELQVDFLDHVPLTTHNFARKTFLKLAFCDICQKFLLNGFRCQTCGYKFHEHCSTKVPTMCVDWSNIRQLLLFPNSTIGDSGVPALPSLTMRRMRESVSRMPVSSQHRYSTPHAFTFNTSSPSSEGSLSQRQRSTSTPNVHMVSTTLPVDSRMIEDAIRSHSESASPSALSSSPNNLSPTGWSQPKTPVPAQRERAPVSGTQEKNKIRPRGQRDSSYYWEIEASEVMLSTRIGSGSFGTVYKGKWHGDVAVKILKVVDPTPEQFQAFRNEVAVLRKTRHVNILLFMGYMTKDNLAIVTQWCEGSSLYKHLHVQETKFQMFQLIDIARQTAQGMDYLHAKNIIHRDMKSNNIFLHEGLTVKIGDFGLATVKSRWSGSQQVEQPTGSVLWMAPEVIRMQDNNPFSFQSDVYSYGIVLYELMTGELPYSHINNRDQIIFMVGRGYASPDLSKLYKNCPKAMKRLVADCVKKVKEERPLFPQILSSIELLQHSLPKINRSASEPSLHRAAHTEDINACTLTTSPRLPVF

## COc1cc(-c2ccc3ncnc(Nc4cc(O)ccc4F)c3c2)ccc1O [Compound 58, 4-(4-(2-fluoro-5-hydroxyphenylamino)quinazolin-6-yl)-2-methoxyphenol]
C-Raf
  IC50: 170 nM
MDA-MB-231
  IC50: 800 ± 300 nM
EGFR kinase
  IC50: 14.9 nM
EGFR (T790M) kinase
  inhibition at 1 µM: 60%
A549
  IC50: 500 ± 200 nM
COLO205
  IC50: 3.2 ± 0.3 µM

## COc1cc(-c2ccc3ncnc(Nc4cccc(O)c4)c3c2)ccc1O [Compound 8, 4-(4-(3-hydroxyphenylamino)quinazolin-6-yl)-2-methoxyphenol]
C-Raf
  IC50: 255 nM
MDA-MB-231
  IC50: 1500 ± 100 nM
EGFR kinase
  IC50: 18.7 nM
EGFR (T790M) kinase
  inhibition at 1 µM: 66%
A549
  IC50: 1100 ± 100 nM
COLO205
  IC50: 6.7 ± 0.1 µM
